Values joined by “and” are separate entries in the source; they are usually repeats but may differ in a detail not shown here. Equal entries are not always repeated.
Legend:
[1] = pKa and log P of the compound of formula I; assay type: physicochemical
Excerpt: (§1) A particularly useful compound for use in the present invention is the compound represented by the chemical structural formula I comprising: [drawing 5] This compound is chemically known as 1-[(1-acetyl-4-piperidinyl)acetyl]-2(S)-(1,1-dimethylethyl)-4(S)*4-[phenyl [4(trifluoromethoxy)phenyl]methyl]piperazine and has a molecular weight of 559.3 g/mole. It is a weak base with a pKa of 4.0 corresponding to the ionization of the piperazine ring. The value of log P is 3.0 and the log D at pH 7.4 is calculated to be 2.9. […] The compound is very soluble in both ethanol and methanol (>150 mg/mL). The solubility in most common organic solvents, such as acetonitrile, dimethyl sulfoxide (DMSO), methylene chloride, ethyl acetate, isopropyl alcohol, hexane, and acetone, generally exceeds 50 mg/mL. The free form of the compound is amorphous, but a crystalline hydrogen sulfate salt of this compound can be made. The X-ray powder diffraction (XRPD) patterns of the amorphous free base and the crystalline hydrogen sulfate salt are shown in FIG. 1.

[2] = Evaluation of suspension in 0.4% HPMC solution or water (pH, chemical and physical stability, re-suspensibility); assay type: physicochemical
Excerpt: With proper ratios of carrier to compound, free flowing and uniform powders or solids can be produced. These powders or solids should have the original molecular characteristics of the adsorbed chemicals. The residual solvent (EtOH) used in this process can be reduced to 20 ppm level. These flowable powders or solids are suspended in an aqueous solution, such as 0.4% HPMC solution or water.
The flowable powders or solids have been tested to be very stable for at least two weeks chemically and physically at room temperature (RT) and ICH RH4 conditions (40° C. and 75% relative humility). The suspension solutions (SiO2-Compound or MCC-Compound in 0.4% HPMC solution or water) are also very stable both chemically and physically for at least two weeks at room temperature. The evaluation of SiO2-Compound and MCC-Compound are shown in Example 1.
Preparation of SiO2-Compound of Formula I samples may be carried out by the following representative steps. Uniformly mix 0.5 grams of API free form (amorphous) with 1.0 grams of SiO2 (Syliod®) 244 FP) in a container using a magnetic stirrer. Then add 5.0 mL of ethanol to the container to dissolve the compound completely. Stir at room temperature and dry the solution under N2 gas until a slurry is formed. Dry the slurry at increasing temperature beginning at 25° C. ending at 50° C. over a duration of 1 hour and at 50° C. for overnight under house vacuum. […]

[3] = In-vivo pharmacokinetic (PK) studies; parameters: species or system rats and dogs; details: Dose 10 mg/kg
Excerpt: In-vivo pharmacokinetic (PK) studies in rats and dogs with these compositions show better PK results in terms of AUC, Cmax, and dose proportionality than that of compound only.

[4] = Solubility of the compound in aqueous media and in organic solvents; assay type: physicochemical
Excerpt: as §1

logP [1]: 3 | pKa ([1]; weak base, ionization of the piperazine ring): 4 | behaviour when suspended in 0.4% HPMC solution ([2]; SiO2 sample at 100 mg/mL, MCC sample at 102 mg/mL, free form as reference): forms a gum | behaviour when suspended in aqueous media ([2]; aqueous media): forms a gum | % AUC (infinity) [3]: 1.2% | AUC(0-t) ([3]; in vivo): 2520 ng·h/mL and 4.5 µM·h | Cmax ([3]; in vivo): 260 ng/mL and 500 nM | Tmax ([3]; in vivo): 3.3 h | AUC(0-inf) ([3]; in vivo, read-out: AUC (infinity)): 4.6 µM·h and 2550 ng·h/mL | solubility ([4]; aqueous media, aqueous buffer, pH 4.0): 1.9 µg/mL and 3.4 µM | solubility ([4]; aqueous media, pH 2.3, aqueous buffer): 74.6 µg/mL and 133 µM | solubility ([4]; aqueous media, pH 7.4, aqueous buffer, pH greater than 7.4): < 1 µg/mL and < 2 µM | solubility ([4]; organic solvent or mixture, in both ethanol and methanol): > 150 mg/mL | solubility ([4]; organic solvent or mixture, most common organic solvents (acetonitrile, DMSO, methylene chloride, ethyl acetate, isopropyl alcohol, hexane, acetone)): > 50 mg/mL
Compound: CC(=O)N1CCC(CC(=O)N2CCN(C(c3ccccc3)c3ccc(OC(F)(F)F)cc3)C[C@@H]2C(C)(C)C)CC1 (stereo partly drawn) [Compound of Formula I, 1-[(1-acetyl-4-piperidinyl)acetyl]-2(S)-(1,1-dimethylethyl)-4(S)*4-[phenyl [4(trifluoromethoxy)phenyl]methyl]piperazine]

Source: patent US20050153976A1, “Pharmaceutical compositions” (SCHERING CORPORATION, priority 2003, published 2005)
